# Source: patent US20260242371A1, “LIPID PRODRUGS OF BROM[…] USES THEREOF” (priority 2023, published 2026)
# Molecular target: T1, recombinant human monoacylglyceride lipase (rhMAGL) (Homo sapiens, UniProt Q99685)
# T1 sequence (Q99685 1-303): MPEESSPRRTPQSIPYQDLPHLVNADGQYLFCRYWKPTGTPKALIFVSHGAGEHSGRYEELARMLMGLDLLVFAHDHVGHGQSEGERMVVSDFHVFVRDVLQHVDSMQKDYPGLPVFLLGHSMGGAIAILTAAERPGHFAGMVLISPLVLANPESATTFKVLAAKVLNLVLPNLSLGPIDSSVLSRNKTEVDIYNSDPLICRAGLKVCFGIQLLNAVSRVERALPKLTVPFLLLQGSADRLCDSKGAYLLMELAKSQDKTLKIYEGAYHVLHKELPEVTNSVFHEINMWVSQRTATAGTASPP
# Assay: In vitro monoglyceride stability of lipid prodrugs with lipoprotein lipase and rhMAGL
# Type: in vitro ADME
# Conditions: 50 μM prodrug, 10 mg/mL BSA, LPL 300 units/mL, 180 vs 30 minutes, 37° C., scale −10 to 10
# Method: The stability of lipid prodrugs of 2-bromo-LSD was evaluated in the presence or absence of recombinant human monoacylglyceride lipase (rhMAGL). 50 µM of prodrug was incubated in 10 mg/mL BSA supplemented with lipoprotein lipase (300 units/mL) and rhMAGL (0-0.5 μg/mL). The concentration of MAGL may be adjusted based on observed activity. Reactions were initiated via the addition of prodrug and incubated at 37° C. for 180 minutes. Aliquots were removed at 30, 60, 120, and 180 minutes and the reaction quenched with the addition of cold acetonitrile spiked with internal standard(s) (1:3 sample to acetonitrile). Samples were vortexed and centrifuged and the supernatant transferred and diluted in 0.1% formic acid water (1:3 supernatant to 0.1% formic acid water). Samples were analyzed via LC-MS. Monoglyceride stability was calculated using the following equations:
# LPL MG Ratio=MG Peak Area at 180 minutes for LPL only/MG Peak area at 30 minutes for LPL only
# rhMAGLMG Ratio=MG Peak Area at 180 minutes for LPLand rhMAGL/MG Peak Area at 30 minutes for LPLand rhMAGL
# MG Stability=((rhMAGLMG Ratio−(1−LPL MG Ratio))*10
# Stability is calculated on a scale of −10 to 10, with 10 representing 100% monoglyceride remaining (i.e., highest stability) and −10 representing 100% monoglyceride loss (i.e., lowest stability). Monoglyceride stability is represented by the following categories, wherein A is a stability score of 5 to 10, B is a stability score of 0 to 5, C is a stability score of −5 to 0, and D is a stability score of −5 to −10.
row,SMILES,Monoacylglyceride Stability
1,"CCCCCCCC/C=C\CCCCCCCC(=O)OCC(COC(=O)CCCCCCC/C=C\CCCCCCCC)OC(=O)CC(C)CCCCCCC(=O)n1c(Br)c2c3c(cccc31)C1=C[C@@H](C(=O)N(CC)CC)CN(C)[C@@H]1C2 (stereo partly shown) [Compound I-24, 2BL-C10bMe-2-TG-oleate]",A (A is a stability score of 5 to 10)
2,"CCCCCCCC(=O)OCC(COC(=O)CCCCCCC)OC(=O)CC1(CC(=O)OCCCCC(=O)n2c(Br)c3c4c(cccc42)C2=C[C@@H](C(=O)N(CC)CC)CN(C)[C@@H]2C3)CC1 [Compound I-18, 2BL-FSI5-C5bcPr-2-TG-octanoate]",A (A is a stability score of 5 to 10)
3,"CCCCCCCC/C=C\CCCCCCCC(=O)OCC(COC(=O)CCCCCCC/C=C\CCCCCCCC)OC(=O)CC(C)CCCCCCC(C)CC(=O)n1c(Br)c2c3c(cccc31)C1=C[C@@H](C(=O)N(CC)CC)CN(C)[C@@H]1C2 (stereo partly shown) [Compound I-3, 2BL-C12b′bMe-2-TG-oleate]",B (B is a stability score of 0 to 5)
4,"CCCCCCCC(=O)OCC(COC(=O)CCCCCCC)OC(=O)CC1(CC(=O)OCOC(=O)n2c(Br)c3c4c(cccc42)C2=C[C@@H](C(=O)N(CC)CC)CN(C)[C@@H]2C3)CC1 [I-9′, 2BL-CASI-C5bcPr-2-TG-octanoate]",A (A is a stability score of 5 to 10)
5,"CCCCCCCC/C=C\CCCCCCCC(=O)OCC(COC(=O)CCCCCCC/C=C\CCCCCCCC)OC(=O)CC(C)CCCCC(=O)OCn1c(Br)c2c3c(cccc31)C1=C[C@@H](C(=O)N(CC)CC)CN(C)[C@@H]1C2 (stereo partly shown) [Compound I-5, 2BL-ASI-C8bMe-2-TG-oleate]",C (C is a stability score of −5 to 0)
6,"CCCCCCCC/C=C\CCCCCCCC(=O)OCC(COC(=O)CCCCCCC/C=C\CCCCCCCC)OC(=O)CC(C)CC(=O)OCCCC(=O)n1c(Br)c2c3c(cccc31)C1=C[C@@H](C(=O)N(CC)CC)CN(C)[C@@H]1C2 (stereo partly shown) [Compound I-14, 2BL-FSI4-C5bMe-2-TG-oleate]",A (A is a stability score of 5 to 10)
7,"CCCCCCCC/C=C\CCCCCCCC(=O)OCC(COC(=O)CCCCCCC/C=C\CCCCCCCC)OC(=O)CC(C)CC(=O)n1c(Br)c2c3c(cccc31)C1=C[C@@H](C(=O)N(CC)CC)CN(C)[C@@H]1C2 (stereo partly shown) [Compound I-1, 2BL-C5bMe-2-TG-oleate]",A (A is a stability score of 5 to 10)
8,"CCCCCCCC/C=C\CCCCCCCC(=O)OCC(COC(=O)CCCCCCC/C=C\CCCCCCCC)OC(=O)CC(C)CC(=O)OCn1c(Br)c2c3c(cccc31)C1=C[C@@H](C(=O)N(CC)CC)CN(C)[C@@H]1C2 (stereo partly shown) [Compound I-4, 2BL-ASI-C5bMe-2-TG-oleate]",D (D is a stability score of −5 to −10)
9,"CCCCCCCC(=O)OCC(COC(=O)CCCCCCC)OC(=O)CC(C)CC(=O)OCOC(=O)n1c(Br)c2c3c(cccc31)C1=C[C@@H](C(=O)N(CC)CC)CN(C)[C@@H]1C2 (stereo partly shown) [Compound I-7, 2BL-CASI-C5bMe-2-TG-octanoate]",A (A is a stability score of 5 to 10)
10,"CCCCCCCC(=O)OCC(COC(=O)CCCCCCC)OC(=O)CC(C)(C)CC(=O)OCCCCC(=O)n1c(Br)c2c3c(cccc31)C1=C[C@@H](C(=O)N(CC)CC)CN(C)[C@@H]1C2 [Compound I-16, 2BL-FSI5-C5bbGMe-2-TG-octanoate]",A (A is a stability score of 5 to 10)
11,"CCCCCCCC(=O)OCC(COC(=O)CCCCCCC)OC(=O)CC(C)(C)CCC(=O)OCn1c(Br)c2c3c(cccc31)C1=C[C@@H](C(=O)N(CC)CC)CN(C)[C@@H]1C2 [Compound I-27, 2BL-ASI-C6bbGMe-2-TG-octanoate]",D (D is a stability score of −5 to −10)
12,"CCCCCCCC(=O)OCC(COC(=O)CCCCCCC)OC(=O)CC(C)(C)CC(=O)OCCCC(=O)n1c(Br)c2c3c(cccc31)C1=C[C@@H](C(=O)N(CC)CC)CN(C)[C@@H]1C2 [Compound I-15, 2BL-FSI4-C5bbGMe-2-TG-octanoate]",B (B is a stability score of 0 to 5)
13,"CCCCCCCC(=O)OCC(COC(=O)CCCCCCC)OC(=O)CC(C)(C)CCC(=O)OCOC(=O)n1c(Br)c2c3c(cccc31)C1=C[C@@H](C(=O)N(CC)CC)CN(C)[C@@H]1C2 [Compound I-23, 2BL-CASI-C6bbGMe-2-TG-octanoate]",A (A is a stability score of 5 to 10)
14,"CCCCCCCC(=O)OCC(COC(=O)CCCCCCC)OC(=O)CC(C)(C)CCC(=O)OCCCC(=O)n1c(Br)c2c3c(cccc31)C1=C[C@@H](C(=O)N(CC)CC)CN(C)[C@@H]1C2 [Compound I-22, 2BL-FSI4-C6bbGMe-2-TG-octanoate]",A (A is a stability score of 5 to 10)
15,"CCCCCCCC/C=C\CCCCCCCC(=O)OCC(COC(=O)CCCCCCC/C=C\CCCCCCCC)OC(=O)CC(C)CCCCC(=O)n1c(Br)c2c3c(cccc31)C1=C[C@@H](C(=O)N(CC)CC)CN(C)[C@@H]1C2 (stereo partly shown) [Compound I-2, 2BL-C8bMe-2-TG-oleate]",A (A is a stability score of 5 to 10)
16,"CCCCCCCC(=O)OCC(COC(=O)CCCCCCC)OC(=O)CC1(CC(=O)OCCCC(=O)n2c(Br)c3c4c(cccc42)C2=C[C@@H](C(=O)N(CC)CC)CN(C)[C@@H]2C3)CC1 [I-15′, 2BL-FSI4-C5bcPr-2-TG-octanoate]",A (A is a stability score of 5 to 10)
17,"CCCCCCCC(=O)OCC(COC(=O)CCCCCCC)OC(=O)CC1(CC(=O)OCn2c(Br)c3c4c(cccc42)C2=C[C@@H](C(=O)N(CC)CC)CN(C)[C@@H]2C3)CC1 [Compound I-25, 2BL-ASI-C5bcPr-2-TG-octanoate]",D (D is a stability score of −5 to −10)
18,"CCCCCCCC(=O)OCC(COC(=O)CCCCCCC)OC(=O)CC1(CC(=O)n2c(Br)c3c4c(cccc42)C2=C[C@@H](C(=O)N(CC)CC)CN(C)[C@@H]2C3)CC1 [Compound I-26, 2BL-C5bcPr-2-TG-octanoate]",A (A is a stability score of 5 to 10)
19,"CCCCCCCC/C=C\CCCCCCCC(=O)OCC(COC(=O)CCCCCCC/C=C\CCCCCCCC)OC(=O)CC(C)CCCCCCCCC(=O)OCn1c(Br)c2c3c(cccc31)C1=C[C@@H](C(=O)N(CC)CC)CN(C)[C@@H]1C2 (stereo partly shown) [Compound I-6, 2BL-ASI-C12bMe-2-TG-oleate]",C (C is a stability score of −5 to 0)
20,"CCCCCCCC(=O)OCC(COC(=O)CCCCCCC)OC(=O)CC(C)(C)CC(=O)OCOC(=O)n1c(Br)c2c3c(cccc31)C1=C[C@@H](C(=O)N(CC)CC)CN(C)[C@@H]1C2 [Compound I-9, 2BL-CASI-C5bbGMe-2-TG-octanoate]",A (A is a stability score of 5 to 10)
21,"CCCCCCCC/C=C\CCCCCCCC(=O)OCC(COC(=O)CCCCCCC/C=C\CCCCCCCC)OC(=O)CC(C)CC(=O)Oc1ccc(Cn2c(Br)c3c4c(cccc42)C2=C[C@@H](C(=O)N(CC)CC)CN(C)[C@@H]2C3)cc1 (stereo partly shown) [Compound I-20, 2BL-PHB-C5bMe-2-TG-oleate]",A (A is a stability score of 5 to 10)
22,"CCCCCCCC(=O)OCC(COC(=O)CCCCCCC)OC(=O)CC(C)(C)CC(=O)OCn1c(Br)c2c3c(cccc31)C1=C[C@@H](C(=O)N(CC)CC)CN(C)[C@@H]1C2 [Compound I-28, 2BL-ASI-C5bbGMe-2-TG-octanoate]",D (D is a stability score of −5 to −10)
23,"CCCCCCCC/C=C\CCCCCCCC(=O)OCC(COC(=O)CCCCCCC/C=C\CCCCCCCC)OC(=O)CC(C)CC(=O)Oc1ccc(COC(=O)n2c(Br)c3c4c(cccc42)C2=C[C@@H](C(=O)N(CC)CC)CN(C)[C@@H]2C3)cc1 (stereo partly shown) [Compound I-21, 2BL-CPHB-C5bMe-2-TG-oleate]",A (A is a stability score of 5 to 10)
24,"CCCCCCCC(=O)OCC(COC(=O)CCCCCCC)OC(=O)CC(C)(C)CCC(=O)OCCCCC(=O)n1c(Br)c2c3c(cccc31)C1=C[C@@H](C(=O)N(CC)CC)CN(C)[C@@H]1C2 [Compound I-19, 2BL-FSI5-C6bbGMe-2-TG-octanoate]",A (A is a stability score of 5 to 10)
25,"CCCCCCCC/C=C\CCCCCCCC(=O)OCC(COC(=O)CCCCCCC/C=C\CCCCCCCC)OC(=O)CC(C)CC(=O)OCCCCC(=O)n1c(Br)c2c3c(cccc31)C1=C[C@@H](C(=O)N(CC)CC)CN(C)[C@@H]1C2 (stereo partly shown) [Compound I-17, 2BL-FSI5-C5bMe-2-TG-oleate]",A (A is a stability score of 5 to 10)
